Experimental data as given in BindingDB's records for doi:10.7270/Q2251GJ9 (The Scripps Research Institute Molecular Screening Center, 2007).

Target: Sphingosine 1-phosphate receptor 1 (Homo sapiens, UniProt P21453)
Assay: direct activation of human S1P1 – cell-based, agonist mode, 60K MLSMR set, dose response (AID 468)
[1] = inactive by the depositor's call

Chain of Sphingosine 1-phosphate receptor 1 (P21453 whole entry): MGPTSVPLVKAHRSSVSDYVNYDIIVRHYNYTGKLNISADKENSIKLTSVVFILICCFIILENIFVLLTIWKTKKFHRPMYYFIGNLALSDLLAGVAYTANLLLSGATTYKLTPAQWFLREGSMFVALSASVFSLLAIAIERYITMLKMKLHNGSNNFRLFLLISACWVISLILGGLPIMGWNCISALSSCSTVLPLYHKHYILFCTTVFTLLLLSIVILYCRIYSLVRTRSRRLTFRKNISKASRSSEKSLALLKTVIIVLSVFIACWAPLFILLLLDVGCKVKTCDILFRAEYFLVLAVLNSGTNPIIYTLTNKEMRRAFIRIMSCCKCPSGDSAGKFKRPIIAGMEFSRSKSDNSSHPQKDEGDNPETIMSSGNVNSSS

| EC50 [µM] | EC50 [1] [µM] | Compound |
| --- | --- | --- |
| 3.95 |  | O=S1(=O)Nc2c(ccc3cccnc23)-c2ccccc21 [5H-quinolino[8,7-c][1,2]benzothiazine 6,6-dioxide] |
| 5.83 |  | COc1ccc(N2CCn3c2nc2c3c(=O)n(CCCc3ccccc3)c(=O)n2C)c(OC)c1 [6-(2,4-dimethoxyphenyl)-4-methyl-2-(3-phenylpropyl)-7,8-dihydropurin[7,8-a]imidazole-1,3-quinone] |
| 3.48 |  | Clc1ccccc1C1=Nn2c(nnc2-c2ccncc2)SC1 [6-(2-chlorophenyl)-3-(4-pyridyl)-7H-[1,2,4]triazolo[3,4-b][1,3,4]thiadiazine] |
| 3.51 |  | CCOC(=O)C1C(=O)C=C(c2ccc(OC)cc2)CC1c1ccco1 (configuration not stated) [6-(2-furanyl)-4-(4-methoxyphenyl)-2-oxo-1-cyclohex-3-enecarboxylic acid ethyl ester] |
| > 10 |  | COc1ccc(-c2cn3c(C)c(C(=O)Nc4ccncc4)sc3n2)cc1 [6-(4-methoxyphenyl)-3-methyl-N-(4-pyridyl)imidazo[2,1-b]thiazole-2-carboxamide] |
| > 30 |  | Cc1ccc(N2C(=O)c3cccc4c(N5CCN(C)CC5)ccc(c34)C2=O)c2cccnc12 [6-(4-methyl-1-piperazinyl)-2-(8-methyl-5-quinolinyl)-1H-benzo[de]isoquinoline-1,3(2H)-dione] |
|  | 12.9 | O=c1oc2cc(Br)ccc2n1CSC1=NCCS1 [6-Bromo-3-(4,5-dihydro-thiazol-2-ylsulfanylmethyl)-3H-benzooxazol-2-one] |
| 58 |  | Cc1[nH]nc2c1C1(C(=O)N(Cc3ccc(Cl)cc3)c3ccccc31)C(C#N)C(=N)O2 (configuration not stated) [6-amino-1'-[(4-chlorophenyl)methyl]-3-methyl-2'-oxo-5-spiro[2H-pyrano[2,3-c]pyrazole-4,3'-indole]carbonitrile] |
|  | 24 | CC(C)Cn1c(N)c(C(=O)CSc2ccc3c(c2)OCCO3)c(=O)n(C)c1=O [6-amino-5-[2-(2,3-dihydro-1,4-benzodioxin-6-ylsulfanyl)acetyl]-3-methyl-1-(2-methylpropyl)pyrimidine-2,4-dione] |
|  | 17.4 | COc1cccc(-c2nnc3sc(C4CCCCC4)nn23)c1 [6-cyclohexyl-3-(3-methoxyphenyl)-[1,2,4]triazolo[3,4-b][1,3,4]thiadiazole] |
| 6.61 |  | CCc1cc2c(N3CCN(c4ccccc4)CC3)ncnc2s1 [6-ethyl-4-(4-phenyl-1-piperazinyl)thieno[2,3-d]pyrimidine] |
|  | 16.1 | COc1ccc2ncn(-c3ccccc3)c2c1 [6-methoxy-1-phenyl-1H-1,3-benzodiazole] |
| 1.24 |  | c1csc(CCNc2ncnc3sc4c(c23)CCC4)c1 [7,8-dihydro-6H-cyclopenta[4,5]thieno[1,2-c]pyrimidin-1-yl-[2-(2-thienyl)ethyl]amine] |
|  | 14.5 | Cc1cc(N2CCN(C(c3ccccc3)c3ccccc3)CC2)n2ncnc2n1 [7-(4-benzhydrylpiperazin-1-yl)-5-methyl-[1,2,4]triazolo[1,5-a]pyrimidine] |
|  | 12.9 | CCNc1nc2c(c(=O)n(C)c(=O)n2C)n1Cc1ccc(Cl)cc1 [7-(4-chlorobenzyl)-8-(ethylamino)-1,3-dimethyl-xanthine] |
| 5.47 |  | OCC12C=CC(O1)c1c2c(O)n(-c2ccccc2-c2ccccc2)c1O (configuration not stated) [7-(hydroxymethyl)-2-(2-phenylphenyl)-4,7a-dihydro-3aH-octahydro-1H-4,7-epoxyisoindole-1,3-dione] |
|  | 51.8 | CCCc1cc2c(=O)c(-c3ccccn3)coc2cc1OC [7-methoxy-6-propyl-3-(2-pyridinyl)-1-benzopyran-4-one] |
|  | 20.3 | CCCn1c(CN2CCN(c3cccc(Cl)c3)CC2)nc2c1c(=O)n(C)c(=O)n2C [8-[[4-(3-chlorophenyl)-1-piperazinyl]methyl]-1,3-dimethyl-7-propylpurine-2,6-dione] |
| 13 |  | CCOC(=O)c1cccc2c1-c1ccccc1C2N=O (configuration not stated) [9-hydroximinofluorene-4-carboxylic acid ethyl ester] |

| EC50 [µM] | EC50 [1] [µM] | Compound |
| --- | --- | --- |
| 3.57 |  | Cc1nnc(SC(=O)N2c3ccccc3Sc3ccccc32)s1 [10-phenothiazinecarbothioic acid S-(5-methyl-1,3,4-thiadiazol-2-yl) ester] |
| 9.34 |  | CCCCn1ccnc1C(=O)c1cccc(S(=O)(=O)N2c3ccccc3CC2C)c1 (configuration not stated) [(1-butyl-2-imidazolyl)-[3-[(2-methyl-2,3-dihydroindol-1-yl)sulfonyl]phenyl]methanone] |
|  | 11.4 | CC1=CC(C)(C)Nc2ccc(OC(=O)c3cccnc3)cc21 [(2,2,4-trimethyl-1H-quinolin-6-yl) pyridine-3-carboxylate] |
|  | 13.6 | CC1CC(C)(C)Nc2ccc(OC(=O)c3ccco3)cc21 (configuration not stated) [(2,2,4-trimethyl-3,4-dihydro-1H-quinolin-6-yl) furan-2-carboxylate] |
|  | 16.3 | COc1ccc(CNc2cc(C)nc3ncnn23)c(OC)c1 [(2,4-Dimethoxy-benzyl)-(5-methyl-[1,2,4]triazolo[1,5-a]pyrimidin-7-yl)-amine] |
|  | 22.9 | CCOc1ccccc1COC(=O)c1cccc(-n2cnnn2)c1 [(2-ethoxyphenyl)methyl 3-(1,2,3,4-tetrazol-1-yl)benzoate] |
| 6.97 |  | Cc1nc(NC(C)c2ccccc2)c2oc3ccccc3c2n1 (configuration not stated) [(2-methylbenzofuro[3,2-d]pyrimidin-4-yl)-(1-phenylethyl)amine] |
| 6.13 |  | C=CCN1/C(=N/c2cccnc2)SCC1(O)c1ccc(C)cc1 (configuration not stated) [(2E)-3-allyl-4-(4-methylphenyl)-2-(pyridin-3-ylimino)-1,3-thiazolidin-4-ol] |
| 1.78 |  | Cn1c(C(=O)N2CCCc3ccccc32)cc2sccc21 [(3,4-Dihydro-2H-quinolin-1-yl)-(4-methyl-4H-thieno[3,2-b]pyrrol-5-yl)-methanone] |
| 2.08 |  | OC(c1cccc(OCc2ccccc2)c1)c1nnc(-c2ccccc2)o1 (configuration not stated) [(3-benzoxyphenyl)-(5-phenyl-1,3,4-oxadiazol-2-yl)methanol] |
| 1.18 |  | Nc1ccc(N2CCOCC2)c(Cl)c1 [(3-chloro-4-morpholino-phenyl)amine] |
| > 95 |  | O=C(Oc1cccc(C(=O)N2CCOCC2)c1)c1ccc(Br)cc1 [(3-morpholin-4-ylcarbonylphenyl) 4-bromanylbenzoate] |
| 19.8 |  | O=C(CSc1nnc(-c2cc3ccccc3cc2O)n1Cc1ccco1)c1ccc(F)cc1 [(3Z)-3-[3-[2-(4-fluorophenyl)-2-oxidanylidene-ethyl]sulfanyl-4-(furan-2-ylmethyl)-1H-1,2,4-triazol-5-ylidene]naphthalen-2-one] |
| 5.8 |  | Cc1cc(C(=O)N2CCN(C(c3ccccc3)c3ccccc3)CC2)on1 [(4-benzhydrylpiperazin-1-yl)-(3-methyl-1,2-oxazol-5-yl)methanone] |
|  | 25.5 | Cc1cc(C(=O)N2CCN(C(c3ccccc3)c3ccccc3)CC2)no1 [(4-benzhydrylpiperazin-1-yl)-(5-methyl-1,2-oxazol-3-yl)methanone] |
| > 10 |  | CC(C)c1cc(C(=O)N2CCN(C(c3ccccc3)c3ccccc3)CC2)no1 [(4-benzhydrylpiperazin-1-yl)-(5-propan-2-yl-1,2-oxazol-3-yl)methanone] |
| 8.01 |  | CCCc1cc(C(=O)N2CCN(C(c3ccccc3)c3ccccc3)CC2)no1 [(4-benzhydrylpiperazin-1-yl)-(5-propyl-1,2-oxazol-3-yl)methanone] |
| 6.75 |  | O=C(c1cc(-c2ccco2)on1)N1CCN(C(c2ccccc2)c2ccccc2)CC1 [(4-benzhydrylpiperazin-1-yl)-[5-(furan-2-yl)-1,2-oxazol-3-yl]methanone] |
